Assay results as given in ChEMBL document CHEMBL1201862, “PubChem BioAssay data set” (2004).
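These data come from cells grown in 96-well plates and exposed to compound for 48 hours at five concentrations. Here, GI50 denotes the concentration required for 50% inhibition of growth.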 Calls of active or inactive are those of the source. No stated cut-off is given here; in the data, active = GI50 up to about 1.1 µM and inactive = higher.

Legend:
Test in all cases: NCI-60 cell line screen, 48 h
HCT-15 = test system: HCT-15
OVCAR-5 = test system: OVCAR-5
SF-268 = test system: SF-268
MOLT-4 = test system: MOLT-4
786-0 = test system: 786-0
CAKI-1 = test system: CAKI-1
UO-31 = test system: UO-31
M14 = test system: M14
ACHN = test system: ACHN
SK-MEL-2 = test system: SK-MEL-2
KM12 = test system: KM12
SNB-19 = test system: SNB-19
RXF 393 = test system: RXF 393
SF-539 = test system: SF-539
LOX IMVI = test system: LOX IMVI

Row | Compound | GI50 (HCT-15) [µM] | GI50 (OVCAR-5) | GI50 (SF-268) | GI50 (MOLT-4) | GI50 (786-0) | GI50 (CAKI-1) | GI50 (UO-31) | GI50 (M14) | GI50 (ACHN) | GI50 (SK-MEL-2) | GI50 (KM12) | GI50 (SNB-19) | GI50 (RXF 393) | GI50 (SF-539) | GI50 (LOX IMVI)
1 | C=CCN1C2Cc3cc(OC)c(OC)cc3C1Cc1cc(OC)c(OC)cc12 | > 100 | > 100 µM (inactive) | > 100 µM (inactive) | > 100 µM (inactive) | > 100 µM (inactive) | > 100 µM (inactive) | 64 µM (inactive) | > 100 µM (inactive) | > 100 µM (inactive) | > 100 µM (inactive) | > 100 µM (inactive) | > 100 µM (inactive) |  |  | 
2 | Cc1ccc(C2(C)NC(=S)N(NC(N)=S)C2=S)cc1 (stereo unspecified) | > 100 |  | > 100 µM (inactive) | 46.3 µM (inactive) | 81.1 µM (inactive) |  | > 100 µM (inactive) | > 100 µM (inactive) | > 100 µM (inactive) | > 100 µM (inactive) |  | > 100 µM (inactive) | 80.2 µM (inactive) | > 100 µM (inactive) | 47 µM (inactive)
3 | O=C1NC2(O)c3ccccc3C(=O)C2(O)N1c1ccccc1 (stereo unspecified) | > 100 | > 100 µM (inactive) | > 100 µM (inactive) | > 100 µM (inactive) | > 100 µM (inactive) | > 100 µM (inactive) | > 100 µM (inactive) | > 100 µM (inactive) |  | > 100 µM (inactive) | > 100 µM (inactive) | > 100 µM (inactive) |  | > 100 µM (inactive) | > 100 µM (inactive)
4 | O=C1CC(c2c[nH]c3ccccc23)C(=O)N1c1ccccc1 (stereo unspecified) | > 100 | > 100 µM (inactive) |  | > 100 µM (inactive) | > 100 µM (inactive) | > 100 µM (inactive) | 83.6 µM (inactive) | > 100 µM (inactive) | > 100 µM (inactive) | > 100 µM (inactive) | > 100 µM (inactive) |  | > 100 µM (inactive) | > 100 µM (inactive) | 
5 | O=C(Nc1cccc2c1C(=O)c1c(NC(=O)c3ccccc3)ccc(Nc3cccc4c3C(=O)c3ccccc3C4=O)c1C2=O)c1ccccc1 | > 100 |  | > 100 µM (inactive) | > 100 µM (inactive) | > 100 µM (inactive) | > 100 µM (inactive) | > 100 µM (inactive) | > 100 µM (inactive) | > 100 µM (inactive) | > 100 µM (inactive) | > 100 µM (inactive) | > 100 µM (inactive) | 59.4 µM (inactive) | > 100 µM (inactive) | 
6 | N#CCCN(c1ccc(-c2nnc(NC(=O)CNNC(=O)CC(=O)Nc3ccccc3)s2)cc1)S(=O)(=O)c1ccccc1 | > 100 | > 100 µM (inactive) | > 100 µM (inactive) | 45.3 µM (inactive) | > 100 µM (inactive) | 78 µM (inactive) | 46.3 µM (inactive) |  | > 100 µM (inactive) | > 100 µM (inactive) | > 100 µM (inactive) | > 100 µM (inactive) |  | > 100 µM (inactive) | > 100 µM (inactive)
7 | O=C1CCC2(CCC(=O)NC2=O)C(=O)N1 | > 100 |  | > 100 µM (inactive) | > 100 µM (inactive) | > 100 µM (inactive) |  | > 100 µM (inactive) | > 100 µM (inactive) | > 100 µM (inactive) |  | > 100 µM (inactive) | > 100 µM (inactive) | > 100 µM (inactive) | > 100 µM (inactive) | > 100 µM (inactive)
8 | COc1ccc2c3c([nH]c2c1CC=C(C)C)C(=O)C=C(C)C3=O | > 25 | > 25 µM (inactive) | 12.3 µM (inactive) | 18.5 µM (inactive) | > 25 µM (inactive) | > 25 µM (inactive) | > 25 µM (inactive) | > 25 µM (inactive) | > 25 µM (inactive) | > 25 µM (inactive) | > 25 µM (inactive) | > 25 µM (inactive) | > 25 µM (inactive) | > 25 µM (inactive) | 
